Earlier results in patent US9603795B2, “Composite for preparing a transdermal delivery device and method for synthesizing the composite thereof” (City University of Hong Kong, priority 2014, dated 2017).

Conditions: oral administration

- amount absorbed in the upper intestinal tract: 1-2%
SMILES: OC[C@H]1O[C@@H]2O[C@H]3[C@H](O)[C@@H](O)[C@@H](O[C@H]4[C@H](O)[C@@H](O)[C@@H](O[C@H]5[C@H](O)[C@@H](O)[C@@H](O[C@H]6[C@H](O)[C@@H](O)[C@@H](O[C@H]7[C@H](O)[C@@H](O)[C@@H](O[C@H]8[C@H](O)[C@@H](O)[C@@H](O[C@H]1[C@H](O)[C@H]2O)O[C@@H]8CO)O[C@@H]7CO)O[C@@H]6CO)O[C@@H]5CO)O[C@@H]4CO)O[C@@H]3CO [β-CD, β-cyclodextrin]
